Source: article PMC9057582, “HIF inhibitor 32-134D eradicates murine hepatocellular carcinoma in combination with anti-PD1 therapy” (The Journal of Clinical Investigation, 2022)

How the values were obtained:
Hepa1-6 HCC tumors = assay: Hepa1-6 tumor growth and eradication in syngeneic C57L mice; format: in vivo
Procedure: To test whether 32-134D inhibits HCC growth in an immunocompetent mouse model, we injected Hepa1-6 HCC cells into the flank of syngeneic C57L mice ([54]). When tumors became palpable (treatment day 1), mice received intraperitoneal injections of 32-134D (40 mg/kg/day) versus vehicle control, or anti-PD1 antibody versus IgG2a isotype control (200 μg on days 1, 4, 7, 10, 13, and 16), or both 32-134D and anti-PD1. Tumors grew very rapidly in all mice treated with vehicle or IgG2a, necessitating euthanasia on or before day 24 (Figure 4, A and C). Tumors regressed in 5 out of 12 mice treated with anti-PD1, but 2 tumors recurred after the last antibody treatment (on day 16) for a tumor eradication rate of only 25% (Figure 4D). […] Thus, addition of 32-134D increased the percentage of mice with a complete response to anti-PD1 immune checkpoint blockade from 25% to 67% (Figure 4F).
Figure 4 Effect of anti-PD1 and 32-134D on Hepa1-6 tumor growth in syngeneic mice. […]
Female nude mice (NCI Athymic NCr-nu/nu) and male C57L mice were purchased from Charles River and The Jackson Laboratory, respectively. Hep3B (8 × 10^6) and Hepa1-6 (1 × 10^7) cells were resuspended in PBS and Matrigel (1:1, vol/vol) and implanted subcutaneously in 6- to 8-week-old mice, and tumor volume was calculated as V = abc × 0.52. […]

Hepa1-6 tumors = assay: Intratumoral mRNA (RT-qPCR, RT-qPCR array) and protein (ELISA) expression in Hepa1-6 tumors; format: in vivo, C57L mice
Procedure: By contrast, the expression of mRNAs encoding the chemokine CXCL1 and interleukins IL-6 and IL-10, which recruit/activate TAMs and/or MDSCs (Supplemental Table 4), was inhibited by 32-134D treatment (P < 0.05; Figure 6D).
Figure 6 Effect of 32-134D on intratumoral gene expression. (A–D) C57L mice were injected with Hepa1-6 HCC cells subcutaneously and when tumors reached a volume of 200 mm^3, the mice were treated with vehicle (blue bars) or 32-134D (40 mg/kg; red bars) by daily intraperitoneal injection for 8 days. The tumors were harvested and mRNA was quantified by RT-qPCR and normalized to blue (mean ± SEM, n = 4). *P < 0.05 versus blue (ANOVA with Bonferroni’s post hoc test). (E) Effect of 32-134D on intratumoral expression of cytokines and chemokines. Total RNA isolated from tumors of 32-134D–treated versus vehicle-treated mice (n = 3 each) was analyzed using an RT-qPCR array and the ratio of mean expression (32-134D/vehicle) was determined. mRNAs with a significant difference between groups (P < 0.05, Student’s t test) are annotated.
Figure 7 Effect of 32-134D on intratumoral expression of immunoregulatory proteins. (A–H) Lysates prepared from tumors of 32-134D–treated versus vehicle-treated mice were subjected to ELISA for secreted proteins mediating antitumor immunity (CXCL2, CXCL9, CXCL10) or immunosuppression (CXCL1, IL-6, IL-10, VEGFA). The data are presented as mean ± SEM (n = 4 each). *P < 0.05 (Mann-Whitney test).
Tumors were homogenized in ice-cold PBS supplemented with 1% Triton X-100 and PIs, centrifuged at 10,000g for 20 minutes to pellet debris, and the supernatant was collected for ELISA using commercial kits (Supplemental Table 6). Optical density was obtained at 450 nm (corrected for readings at 570 nm) using the VICTOR Nivo plate reader. Sample protein concentration was calculated by linear regression from a standard curve.
Total RNA from Hepa1-6 tumors was analyzed using the RT^2 Profiler PCR Array of Mouse Cytokines and Chemokines (Supplemental Table 6) according to the manufacturer’s instructions.

[1] = Hematologic indices, serum EPO and organ histology in mice; format: in vivo, C57BL/6J mice; conditions: 14 days
Procedure: To investigate the effect of 32-134D on erythropoiesis, C57BL/6J mice (n = 4 per group) received a daily intraperitoneal injection of vehicle or 32-134D at a dose of 40 or 80 mg/kg/day for 14 days.
Figure 8 Effect of 32-134D on red blood cell indices. Mice (n = 4 per group) were treated with vehicle (V) or 32-134D (40 mg/kg/day) for 14 days and peripheral blood was analyzed for red blood cell count (RBC), hemoglobin (Hgb), hematocrit (Hct), reticulocytes, mean corpuscular hemoglobin (MCH), mean corpuscular hemoglobin concentration (MCHC), mean corpuscular volume (MCV), and absolute reticulocyte count (A) or EPO levels in serum (B).
To analyze blood parameters, male C57BL/6J mice were treated with vehicle or 32-134D by daily intraperitoneal injection for 14 days. Blood was collected by cardiac puncture into EDTA-coated tubes for analysis of hematologic indices at the Johns Hopkins Mouse Phenotyping Core. Blood collected into noncoated tubes was allowed to clot for 2 hours at room temperature, centrifuged at 2000g for 20 minutes, and serum samples were subjected to EPO ELISA according to the manufacturer’s instructions (Supplemental Table 6). Organs including heart, liver, kidney, small intestine, colon, lungs, and brain were harvested, fixed in formalin for 24 hours, and embedded in paraffin for histopathological investigation. Hematoxylin and eosin staining was performed by the Johns Hopkins Reference Histology Services.
Supplemental Figure 9. Normal organ histology in mice treated with 32-134D. Mice were administered vehicle or 32-134D (40 or 80 mg/kg) by daily intraperitoneal injection for 14 days and tissue sections from the indicated organs were stained with hematoxylin and eosin. Scale bar = 20 µm.
(1 picture or pasted object on this page, not shown here)

[2] = RT-qPCR array of 84 mRNAs, P < 0.05
[3] = RT-qPCR, 40 mg/kg, 8 days, P < 0.05

- histology of brain, colon, heart, kidney, liver, lungs, and small intestine ([1]; 40 or 80 mg/kg ip): no changes
- red blood cell count, hemoglobin, hematocrit, reticulocyte count, MCV, MCH, MCHC versus vehicle ([1]; 40 or 80 mg/kg/day ip): not significantly different
- serum EPO levels versus vehicle ([1]; ELISA): no significant difference
Structure (SMILES): Brc1ccc2c(-c3csc(-c4c[nH]c5c(Br)cccc45)n3)c[nH]c2c1 [Compound 32-134D]
- tumor growth (Hepa1-6 HCC tumors; 40 mg/kg/day ip): inhibition of tumor growth in all mice
- mice with tumor eradication (Hepa1-6 HCC tumors; 12 mice per group): 4 of 12
- CXCL1, IL-6, IL-10, and VEGFA protein in tumor lysates (Hepa1-6 tumors; ELISA): decreased levels
- CXCL2, CXCL9, and CXCL10 protein in tumor lysates (Hepa1-6 tumors; ELISA, P < 0.05): significantly increased levels
- number of cytokine/chemokine mRNAs with decreased expression (Hepa1-6 tumors; [2]): 40 mRNAs
- number of cytokine/chemokine mRNAs with increased expression (Hepa1-6 tumors; [2]): 5 mRNAs
- tumor expression of CXCL1, IL-6 and IL-10 mRNA (Hepa1-6 tumors; [3]): inhibited
- tumor expression of CXCL9, CXCL10, and IFN-γ mRNA (Hepa1-6 tumors; [3]): increased
- tumor mRNAs encoding angiogenic factors (ANGPTL4, EPO, PGF, VEGFA) and immunosuppression proteins (B7H4, CD47, CD73, PDL1, SLC2A1, HAVCR2, CD70, LDHA, ENTPD1, CA9) (Hepa1-6 tumors; [3]): significantly decreased
